Assay results: article PMC8661056, “Synthesis and Evaluation of [^11C]7-Halogen-2-Phenyl Isoindolone Derivatives: Potential PET Radioligands for in vivo Imaging of 5-HT2C Receptors” (Frontiers in Neuroscience, 2021)

Key:
[1] = set-up: method as in Hamprecht et al., 2007; settings: ref Hamprecht et al., 2007; cited from earlier work
[2] = target: T1, 5-HT1A (Homo sapiens, UniProt P08908); assay: competition binding assay (NIMH PDSP), 5-HT1A; settings: read-out: Binding affinity Ki, 5-HT1A
T1 sequence (P08908 1-422): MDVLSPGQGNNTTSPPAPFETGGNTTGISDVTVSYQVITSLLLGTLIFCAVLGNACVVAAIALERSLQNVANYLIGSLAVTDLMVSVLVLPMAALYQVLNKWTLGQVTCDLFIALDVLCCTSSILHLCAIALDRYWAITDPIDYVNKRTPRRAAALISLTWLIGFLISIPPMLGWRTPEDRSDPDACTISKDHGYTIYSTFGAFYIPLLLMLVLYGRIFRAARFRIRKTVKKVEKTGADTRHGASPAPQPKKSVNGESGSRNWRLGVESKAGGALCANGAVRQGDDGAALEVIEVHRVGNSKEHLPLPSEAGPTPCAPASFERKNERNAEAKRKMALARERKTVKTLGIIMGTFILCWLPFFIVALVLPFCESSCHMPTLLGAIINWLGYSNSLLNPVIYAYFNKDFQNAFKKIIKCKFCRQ

[3] = target: 5-HT5–7; assay: competition binding assay (NIMH PDSP), 5-HT5–7; settings: read-out: Binding affinity Ki, 5-HT5–7
[4] = target: T2, 5-HT2A (Homo sapiens, UniProt P28223); assay: competition binding assay (NIMH PDSP), 5-HT2A; settings: read-out: Binding affinity Ki, 5-HT2A
[5] = target: T3, 5-HT2C (Homo sapiens, UniProt P28335); assay: 5-HT2C competition binding assay with [^3H]mesulergine (NIMH PDSP); settings: for Ki: competition with [^3H]mesulergine, mean of three experiments ± SD, read-out: Binding affinity Ki, 5-HT2C; for 5-HT2C binding less than that for 9: relative to compound 9
T3 sequence (P28335 33-458): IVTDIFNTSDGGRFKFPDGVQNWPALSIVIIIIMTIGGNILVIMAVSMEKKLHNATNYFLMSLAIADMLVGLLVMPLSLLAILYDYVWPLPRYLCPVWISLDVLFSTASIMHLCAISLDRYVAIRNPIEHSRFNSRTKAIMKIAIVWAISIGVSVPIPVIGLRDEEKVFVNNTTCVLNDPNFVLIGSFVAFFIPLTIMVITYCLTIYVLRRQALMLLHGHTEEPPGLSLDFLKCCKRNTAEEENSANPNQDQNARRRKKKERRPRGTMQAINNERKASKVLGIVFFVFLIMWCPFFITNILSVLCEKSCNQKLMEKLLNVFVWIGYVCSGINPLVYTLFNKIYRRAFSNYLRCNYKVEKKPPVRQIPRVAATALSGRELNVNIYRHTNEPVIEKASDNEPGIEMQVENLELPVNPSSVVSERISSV
Description: (§1) We selected 6 and 9 for carbon-11 radiolabelling and PET imaging studies.

[6] = target: T2, 5-HT2A; assay: primary binding, 5-HT2A
Description: as §1

[7] = target: 5-HT2B (Homo sapiens, UniProt P41595); assay: competition binding assay (NIMH PDSP), 5-HT2B; settings: mean of three experiments ± SD, read-out: Binding affinity Ki, 5-HT2B
[8] = target: D1-D5; assay: competition binding assay (NIMH PDSP), dopamine D1-D5; settings: read-out: Binding affinity Ki, D1-D5
[9] = solubility in the injection form; format: physicochemical; settings: 10% ethanol in saline
Description: (§2) To test specific binding of [^11C]6 and [^11C]9 to the choroid plexus and hippocampus, an in vivo microPET blocking study was performed with 0.1 mg/kg SB-242084 30 min prior to injection, respectively. Unfortunately, due to the unexpected low solubility of SB-242084 in the injection form (10% ethanol in saline), the administered SB-242084 in soluble form to the monkeys was likely much less than the target 0.1 mg/kg. As a result, the uptake of [^11C]6 and [^11C]9 in the choroid plexus and hippocampus was still present.

[10] = target: 5-HT2CR; settings: no reference given; cited from earlier work
[11] = tested on: 5-HT2CR; set-up: method as in Zeng et al., 2018; settings: rhesus monkeys; ref Zeng et al., 2018; cited from earlier work
[12] = tested on: 5-HT2CR; assay: microPET brain imaging in rhesus monkeys; format: in vivo; settings: rhesus monkey; for effect of pretreatment with SB-242084 on uptake in choroid plexus and hippocampus: target 0.1 mg/kg SB-242084 30 min prior to injection (soluble dose likely much less)
Description: [^11C]6 and [^11C]9 were further evaluated in rhesus monkeys using a Siemens MicroPET Focus 220 scanner (Figure 3). […] Ratios of uptake in choroid plexus, hippocampus, amygdala, frontal cortex to that in cerebellum peaked at 2.7, 1.6, 1.3, and 1.1, respectively.
FIGURE 3 PET-MRI analysis of [^11C]6 and [^11C]9 in rhesus monkey. (A) MicroPET images of [^11C]6 (left) and corresponding fused PET/MRI images summed over all time at baseline. (B) MicroPET images [^11C]6 (left) and corresponding fused PET/MRI images summed over all time after pretreatment with 0.1 mg/kg of SB-242084. (C) Time-activity curves of [^11C]6 for brain regions of interest at baseline study. (D) Time-activity curves of [^11C]6 for brain regions after pretreatment with SB-242084. (E) Time-activity curves of [^11C]9 for brain regions of interest at baseline study. (F) Time-activity curves of [^11C]9 for brain regions after pretreatment with SB-242084.
as §2

[13] = target: T4, 5-HT2CR (Rattus norvegicus, UniProt P08909); assay: microPET/CT brain imaging in rats; format: in vivo, Sprague–Dawley rats; settings: for effect of pretreatment with SB-242084 on uptake: 0.1 mg/kg SB-242084 prior to injection; for ratio of uptake in choroid plexus to cerebellum, peak / ratio of uptake in hippocampus to cerebellum, peak: i.v., baseline, from time-activity curves
T4 construct: from tissue; host or cells: brain of living Sprague–Dawley rats (choroid plexus, hippocampus)
T4 sequence (P08909 33-460): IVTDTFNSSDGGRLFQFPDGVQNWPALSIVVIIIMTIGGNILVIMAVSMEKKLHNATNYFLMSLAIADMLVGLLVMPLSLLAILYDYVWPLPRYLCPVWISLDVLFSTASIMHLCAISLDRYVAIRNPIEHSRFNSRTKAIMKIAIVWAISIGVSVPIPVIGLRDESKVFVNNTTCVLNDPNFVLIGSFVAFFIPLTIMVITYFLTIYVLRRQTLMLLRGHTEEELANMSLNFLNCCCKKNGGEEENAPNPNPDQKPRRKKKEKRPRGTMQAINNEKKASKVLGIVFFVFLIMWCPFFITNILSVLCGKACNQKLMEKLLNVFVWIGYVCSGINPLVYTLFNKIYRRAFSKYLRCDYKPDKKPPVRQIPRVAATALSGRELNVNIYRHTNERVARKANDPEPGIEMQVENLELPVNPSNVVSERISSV
Description: [^11C]6 and [^11C]9 were intravenously administered to Sprague–Dawley rats and brain images were acquired with a Siemens Inveon microPET/CT imaging system, respectively (Figure 2).
FIGURE 2 PET analysis of [^11C]6 and [^11C]9 in Sprague–Dawley rats. (A) Summed images of [^11C]6 PET/CT data from 10 to 120 min p.i. at baseline. Orange arrows depict choroid plexus; Blue arrows depict hippocampus. (B) Summed images of [^11C]6 PET/CT data from 10 to 120 min p.i. after pretreatment with 0.1 mg/kg of SB-242084. (C) Mean (n = 3) time-activity curves for brain regions of interest of [^11C]6 at baseline with standard error. (D) Mean (n = 3) time-activity curves for brain regions of interest of [^11C]6 after pretreatment with 0.1 mg/kg of SB-242084 with standard error. (E) Mean (n = 3) time-activity curves for brain regions of interest of [^11C]9 at baseline with standard error. (F) Mean (n = 3) time-activity curves for brain regions of interest of [^11C]9 after pretreatment with 0.1 mg/kg of SB-242084 with standard error.

[14] = lipophilicity, octanol/phosphate buffer partition; format: physicochemical; settings: pH 7.4, read-out: log P7.4
Description: [^11C]6 and [^11C]9 were prepared via O-methylation of 10 and 11 with [^11C]CH3I in the presence of 0.1 M Bu4NOH in DMF followed by HPLC purification, respectively. [^11C]6 and [^11C]9 were obtained in an average radiochemical yield of 37–44 ± 4% (n = 10, decay corrected) with ≥97% radiochemical and chemical purity. The total synthesis time was 50 ± 5 min end of bombardment and the specific activity were in the range of 0.5–1.2 Ci/μmol at time of injection. The lipophilicities of 6 and 9 (octanol/phosphate buffer partition) were measured. The log P7.4 values of [^11C]6 and [^11C]9 are 2.81 and 2.89, respectively, which are in the optimal range (1.0–3.0) for compounds expected to enter the brain readily.

[15] = tested on: 5-HT2CR; set-up: method as in Neelamegam et al., 2014; settings: PET imaging; ref Neelamegam et al., 2014; cited from earlier work

Chain of 5-HT2B (P41595 whole entry, species assumed): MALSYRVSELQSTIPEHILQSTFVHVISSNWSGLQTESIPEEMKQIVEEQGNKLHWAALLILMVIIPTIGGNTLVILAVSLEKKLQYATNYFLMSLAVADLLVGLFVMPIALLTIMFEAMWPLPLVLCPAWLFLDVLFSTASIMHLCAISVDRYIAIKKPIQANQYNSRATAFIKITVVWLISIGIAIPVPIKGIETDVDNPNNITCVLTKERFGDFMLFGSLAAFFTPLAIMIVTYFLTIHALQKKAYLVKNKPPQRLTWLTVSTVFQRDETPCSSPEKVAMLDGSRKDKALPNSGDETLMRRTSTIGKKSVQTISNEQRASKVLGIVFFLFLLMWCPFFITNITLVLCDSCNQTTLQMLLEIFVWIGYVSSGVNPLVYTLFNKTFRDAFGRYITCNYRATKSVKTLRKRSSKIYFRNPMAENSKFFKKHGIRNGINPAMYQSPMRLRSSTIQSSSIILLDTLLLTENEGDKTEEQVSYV
T2 sequence (P28223 whole entry, species assumed): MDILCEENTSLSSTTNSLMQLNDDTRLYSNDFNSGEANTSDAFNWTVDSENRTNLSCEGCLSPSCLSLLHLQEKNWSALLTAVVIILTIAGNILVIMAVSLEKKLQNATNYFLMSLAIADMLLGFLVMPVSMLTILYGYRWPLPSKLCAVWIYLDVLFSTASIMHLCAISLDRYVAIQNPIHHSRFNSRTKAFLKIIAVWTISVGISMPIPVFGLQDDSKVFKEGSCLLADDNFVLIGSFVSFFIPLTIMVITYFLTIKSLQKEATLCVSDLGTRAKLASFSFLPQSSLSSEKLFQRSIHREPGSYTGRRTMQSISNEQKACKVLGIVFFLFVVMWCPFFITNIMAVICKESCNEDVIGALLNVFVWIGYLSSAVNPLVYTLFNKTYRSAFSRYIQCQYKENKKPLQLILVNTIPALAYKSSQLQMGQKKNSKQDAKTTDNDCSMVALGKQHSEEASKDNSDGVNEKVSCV

## COc1ccc(N2Cc3cccc(Cl)c3C2=O)cc1OCCN1CCC(C)CC1 [Compound 6, 7-chloro-2-[4-methoxy-3-[2-(4-methylpiperidin-1-yl)ethoxy]phenyl]isoindolin-1-one]
[1]
  brain permeability as measured by brain to blood plasma ratio: great
[2]
  Ki: > 1000 nM
[3]
  Ki: > 1000 nM
[4]
  Ki: > 1000 nM
[5]
  Ki: 2.2 ± 0.3 nM
  5-HT2C binding less than that for 9: 2–3 times
[6]
  primary bindings at 5-HT2A: < 50%
[7]
  Ki: 194 ± 74 nM
[8]
  Ki: > 1000 nM

## COc1ccc(N2Cc3cccc(Br)c3C2=O)cc1OCCN1CCC(C)CC1 [Compound 7]
[1]
  brain permeability as measured by brain to blood plasma ratio: great
[2]
  Ki: > 1000 nM
[3]
  Ki: > 1000 nM
[4]
  Ki: > 1000 nM
[5]
  Ki: 2.9 ± 0.7 nM
  5-HT2C binding less than that for 9: 2–3 times
[6]
  primary bindings at 5-HT2A: < 50%
[7]
  Ki: 177 ± 75 nM
[8]
  Ki: > 1000 nM

## COc1ccc(N2Cc3cccc(F)c3C2=O)cc1OCCN1CCC(C)CC1 [Compound 8]
[2]
  Ki: > 1000 nM
[3]
  Ki: > 1000 nM
[4]
  Ki: > 1000 nM
[5]
  Ki: 28 ± 14 nM
[7]
  Ki: 434 ± 204 nM
[8]
  Ki: > 1000 nM

## COc1ccc(N2Cc3cccc(I)c3C2=O)cc1OCCN1CCC(C)CC1 [Compound 9, 7-iodo-2-[4-methoxy-3-[2-(4-methylpiperidin-1-yl)ethoxy]phenyl]isoindolin-1-one]
[2]
  Ki: > 1000 nM
[3]
  Ki: > 1000 nM
[4]
  Ki: > 1000 nM
[5]
  Ki: 1.1 ± 0.3 nM
[6]
  primary bindings at 5-HT2A: < 50%
[7]
  Ki: 126 ± 28 nM
[8]
  Ki: > 1000 nM

## Cc1cc2c(cc1Cl)N(C(=O)Nc1ccc(Oc3cccnc3C)nc1)CC2 [SB-242084]
[9]
  solubility in the injection form: low
[10]
  Ki: 3.6 nM

## Cc1ccc2c(C(=O)Nc3ccc(Oc4cccnc4C)nc3)c[nH]c2c1 [[^11C]5, 6-methyl-N-[6-[(2-methyl-3-pyridinyl)oxy]-3-pyridinyl]1H-indole-3-carboxamide]
[11]
  level of specific binding in the choroid plexus: high
  overall brain uptake and retention: low

## CC1CCN(CCOc2cc(N3Cc4cccc(Cl)c4C3=O)ccc2O[11CH3])CC1 [[^11C]6, [^11C]7-Chloro-2-[4-methoxy-3-[2-(4-methylpiperidin-1-yl)ethoxy]phenyl]isoindolin-1-one]
[12]
  blood-brain barrier penetration: excellent
  effect of pretreatment with SB-242084 on uptake in choroid plexus and hippocampus: a reduction in the uptake and faster washout
[12]; baseline
  SUV in choroid plexus (peak uptake): 5.6
  SUV in hippocampus: 4.6
  ratio of uptake in amygdala to cerebellum, peak: 1.3
  ratio of uptake in choroid plexus to cerebellum, peak: 2.7
  ratio of uptake in frontal cortex to cerebellum, peak: 1.1
  ratio of uptake in hippocampus to cerebellum, peak: 1.6
[12]; baseline, after injection
  time of peak radioactivity uptake in choroid plexus: 20 to 30 min
[12]; baseline, postinjection
  time of peak uptakes in hippocampus, amygdala, frontal cortex and cerebellum: 9.5 to 18.5 min
[13]
  effect of pretreatment with SB-242084 on uptake: reduction of radioactivity uptake in choroid plexus and hippocampus to the same level as of the cerebellum
  ratio of uptake in choroid plexus to cerebellum, peak: 1.8
  ratio of uptake in hippocampus to cerebellum, peak: 1.2
[14]
  logD: 2.81

## CC1CCN(CCOc2cc(N3Cc4cccc(I)c4C3=O)ccc2O[11CH3])CC1 [[^11C]9, [^11C]7-iodo-2-[4-methoxy-3-[2-(4-methylpiperidin-1-yl)ethoxy]phenyl]isoindolin-1-one]
[12]
  blood-brain barrier penetration: excellent
  effect of pretreatment with SB-242084 on uptake in choroid plexus and hippocampus: a reduction in the uptake and faster washout
[12]; baseline
  SUV in choroid plexus (peak uptake): 2.01
  SUV in hippocampus: 1.46
  ratio of uptake in choroid plexus to cerebellum, peak: 3.7
  ratio of uptake in hippocampus to cerebellum, peak: 2.7
[12]; baseline, after injection
  time of peak uptake in choroid plexus and hippocampus: 25 to 55 min
[13]
  effect of pretreatment with SB-242084 on uptake: reduction of radioactivity uptake in choroid plexus and hippocampus to the same level as of the cerebellum
  ratio of uptake in choroid plexus to cerebellum, peak: 1.9
  ratio of uptake in hippocampus to cerebellum, peak: 1.3
[14]
  logD: 2.89

## c1cc2c3c(c1)[C@H]1CCC[C@H]1CN3CCN[11CH2]2 [[^11C]Vabicaserin]
[15]
  non-specific binding in baboon brains: high

## c1cc2c3c(c1)[C@H]1CCC[C@H]1N3CCN[11CH2]2 [[^11C]WAY-163909]
[15]
  non-specific binding in baboon brains: high
